Legend:
[1] = Pharmacokinetic experiment, oral capsules in Beagle dogs; type: in vivo; settings: dog, plasma, male Beagle dogs, 5 mg/kg
Description: The crystal form of the compound having Formula (I) was filled into capsules, which were used for oral administration.
Three male Beagle dogs weighing 8-12 kg were orally administered with capsules containing the test sample at a dose of 5 mg/kg, and blood samples were taken at time points of 0.25 h, 0.5 h, 1.0 h, 2.0 h, 4.0 h, 6.0 h, 8.0 h and 24 h. Standard curve was plotted based on concentrations of the samples in a suitable range, the concentration of the test sample in the plasma sample was measured and quantified by AB SCIEX API4000 LC-MS/MS at MRM mode. Pharmacokinetic parameters were calculated according to drug concentration-time curve using a noncompartmental method by WinNonLin 6.3 software.

[2] = Stability experiment (high-temperature, high-humidity, photostability); type: physicochemical
Description: (§1) (1) High-temperature test: A batch of the test sample was taken and put into a flat weighing bottle, divided into ≤5 mm thick thin layer. The sample was placed at 60° C. for 30 days. The sample was then sampled at day 5, day 13 and day 30, and the change of the sample's color was observed. The purity of the sample was detected by HPLC.
(2) High-humidity test: A batch of the test sample was taken and put into a flat weighing bottle, divided into ≤5 mm thick thin layer. The sample was placed at 25° C. and RH for 90%±5% for 30 days. The sample wad sampled at day 5, day 13 and day 30, and the change of the sample's color was observed. The purity of the sample was detected by HPLC.
as §1, with “(3) Photostability” for “(1) High-temperature”, “taken” for “taken and put”, “placed in an opened light box (with UV)” for “placed”, “the illuminance 4500+5001x, UV light ≥0.7w/m2” for “60° C.”

[3] = Hygroscopicity experiment (dynamic vapor sorption); type: physicochemical; settings: relative humidity of 80%, criterion of hygroscopic weight gain
Description: The description of the hygroscopic characteristics and the definition of the hygroscopic weight gain (Appendix 9103 of Chinese Pharmacopoeia 2020 Edition, Guidelines for Drug Hygroscopicity Tests, experimental conditions: 25° C.±1° C., 80%+2% relative humidity) are described in the table below:
The hygroscopicity of the present invention is measured using the DVS INT-Std dynamic moisture and gas adsorption analyzer of the Surface Measurement Systems Company in UK. The humidity test range was 0%-95%, the air flow was 200 mL/min, the temperature was 25° C., test point: take one test point per […] 5% humidity.
An appropriate amount of the test sample was taken and the hygroscopicity of the test sample was tested by dynamic moisture adsorption device. It can be seen from FIG. 4 that the weight gain of the crystal form J according to the present invention is more than 0.2% but less than 2% after equilibrium under the condition of a relative humidity of 80%. […] Therefore, the crystal form J of the invention is not susceptible to deliquescent under the influence of high humidity, which is convenient for the long-term storage of the medicine.

AUC(0-t) [1]: 885 ng·h/mL
Cmax [1]: 554 ng/mL
Tmax [1]: 40 min
crystal structure stability ([2]; high temperature, high humidity and/or lighting conditions): remains basically unchanged
hygroscopic characteristics [3]: lightly hygroscopic
SMILES: O=C(O)c1ccc2c(c1)Oc1ccc(OCc3c(-c4c(Cl)cccc4Cl)noc3C3CC3)nc1C1(CC1)C2 [crystal form J, 2-((5-cyclopropyl-3-(2,6-dichlorophenyl)isoxazol-4-yl)methoxy)-10H-spiro[benzo[6,7]oxepino[3,2-b]pyridine-11,1′-cyclopropane]-7-carboxylic acid]
change in appearance and chemical purity (HPLC) ([2]; 60° C., 25° C. and RH 90%±5%, light box with UV, 30 days, sampled at day 5, 13, 30): no obvious changes in the appearance and chemical purity

Reference: patent US20250268871A1, “NEW CRYSTAL FORM OF NITROGEN-CONTAINING TRICYCLIC COMPOUND AND USE THEREOF” (SUNSHINE LAKE PHARMA CO., LTD., priority 2021, published 2025)
